Laboratory results taken from patent publication US20250345318A1, “COMPOUND AND USE THEREOF IN PREVENTING OR TREATING RADIATION DAMAGE” (SIMCERE PHARMACEUTICAL CO., LTD., priority 2022, published 2025).

Columns and labels:
lung tissue = assay: JWA, γ-H2AX, p-p65 in lung tissue of xenograft mice (immunofluorescence, immunoblot) (Example 21); type: in vivo
Text: In order to verify the protection effect of JAC4 against X-ray-induced DNA damage in lung tissues, 3 mice were randomly selected from each group to provide the lung tissue for immunofluorescence staining, and proteins were extracted from the lung tissues of the other 3 mice for western immunoblot to detect the expression levels of JWA, γ-H2AX, and p-p65, thereby verifying the relation between the targets of JAC4 and the reduction of DNA damage and apoptotic damages in the lung tissues. The western blot procedures are detailed in Example 4, and the immunofluorescence staining procedures are as follows:
1. Dewaxing and hydration: Prepared paraffin sections were dewaxed in an oven at 60° C. for 2-3 h to ensure a tight attachment between the section and the slide; the sections were then dewaxed by soaking in xylene I, 30 min→xylene II, 30 min→xylene III, 30 min→absolute ethyl alcohol I, shaker, 5 min→absolute ethyl alcohol II, shaker, 5 min→95% ethyl alcohol, shaker, 5 min→85% ethyl alcohol, shaker, 5 min→75% ethyl alcohol, shaker, 5 min→PBS, shaker, 5 min×3.
2. Antigen retrieval: The washed sections were boiled in 500 mL of 1× antigen retrieval solution (20× sodium citrate buffer 25 mL, pH 6.0, diluted to 1× in 475 mL of PBS), then taken out 10 min after the solution started boiling, and cooled to room temperature.
3. Cleaning and blocking: The sections were washed with PBS for 5 min thrice on a shaker. Droplets on the sections were removed carefully without overdrying. The edges of the sections were marked with an immunofluorescent pen, and a blocking buffer (centrifuged at 12,000 g for 5 min) was dropwise added to completely cover the sections. The sections were blocked for 1 h at room temperature.
4. Cleaning and co-incubation with primary antibody: After removing the blocking buffer, the sections were washed with PBS for 5 min thrice on a shaker; the primary antibody (centrifuged at 6,000 g for 5 min) was added dropwise to cover the sections, and the sections were incubated into a humidified chamber overnight at 4° C.
5. Cleaning and co-incubation with secondary antibody: The sections were washed with PBS for 5 min thrice on a shaker before the fluorescent secondary antibody (centrifuged at 6,000 g for 5 min) was added dropwise away from light. The sections were incubated at room temperature for 1 h.
6. Cleaning, nucleus staining, and photographing: The whole procedure was performed away from light. The sections were washed with PBS for 5 min thrice on a shaker. An anti-fluorescence quenching blocker containing DAPI was added dropwise. The cover glass was mounted for sealing and slowly from one side to avoid bubbles. The sealed slices were incubated in a humidified chamber for 15 min and continuously photographed to give images under a laser confocal microscope.

SPCA-1 cells = assay: CCK-8 cell viability, JAC4 with X-ray, SPCA-1 (Example 22); type: cell-based, human; settings: 10 μM JAC4 24 h + 4 Gy X-ray 24 h
Procedure: SPCA-1 and BEAS-2B cells were cultured in a 90%/DMEM+10% FBS+100 μg/mL ciprofloxacin culture medium. The SPCA-1 and BEAS-2B cells were pretreated for 24 h with 10 μM JAC4 and subjected to 4 Gy X-ray treatment for 24 h and then CCK-8 detection, so as to explore the influence of JAC4 in combination with X-ray on the viability of SPCA-1 and BEAS-2B cells. The specific procedures are as follows:
1. SPCA-1 and BEAS-2B cells in the exponential growth phase were plated in a 96-well plate at 5,000 cells/well in triplicate for each group.
2. After 24 h of culture, when the cells fully adhered to the container wall and returned to normal morphology, the cells were treated with X-ray radiation of 0, 4, 8, 12, 16, or 20 Gy or JAC4 at 0, 1, 5, 10, 20, or 50 μM.
3. After 24 h of treatment, CCK-8 reagent was added at 10 μL/well, and the cells were incubated in a cell incubator for 1 h. The absorbance (OD) at 450 nm was measured.
4. Cell viability equation: cell viability (%)=[…]×100%/(ODcontrol−ODblank).

[1] = JAC4+X-ray group relative to X-ray group
[2] = JAC4 group relative to control group

## c1ccc(CSc2nnc(C3COc4ccccc4O3)o2)nc1 (stereo not drawn) [JAC4]
Lung tissue; [1]
  JWA protein level in lung tissue (immunoblot): 1.25 folds
  p-p65 protein level in lung tissue (immunoblot): 0.61 folds
  γ-H2AX protein level in lung tissue (immunoblot): 0.83 folds
Lung tissue; JAC4+X-ray group vs X-ray group, immunofluorescence
  fluorescence intensities of γ-H2AX, TNF-α, and TGF-β1 in lung tissue: significantly decreased
Lung tissue; JAC4 and JAC4+X-ray groups vs control group, immunofluorescence
  JWA fluorescence intensity in lung tissue: higher JWA fluorescence intensity as compared with the control group
Lung tissue; [2]
  JWA protein level in lung tissue (immunoblot): 4.23 folds
  p-p65 protein level in lung tissue (immunoblot): 0.63 folds
  γ-H2AX protein level in lung tissue (immunoblot): 0.91 folds
SPCA-1 cells
  viability of SPCA-1 cells (CCK-8): significantly inhibited
